# What was measured:
# HeLa FANCD2 KO cells [1] = assay: Sensitivity of FANCD2-deficient cells (IC50 and clonogenic survival); type: cell-based; conditions: FIG. 2E, 2F
# Description: (§1) Data are shown as mean±s.e.m. of 3 independent experiments, ns (not significant), *p<0.05, **p<0.01 and ***p<0.001 according to two-way ANOVA followed by Šidák multiple range test (A) or by Tukey multiple range test (F) or to one-way ANOVA followed by Tukey's multiple comparison test (B, E, G) and Mann-Whitney test (C).
# (§2) 1000 Hela cells were seeded in triplicate in 10 cm dishes and allowed to attach for 4 hours before treatment for 1 hour with the indicated drugs. After 15 days, cells were washed, fixed and stained with crystal violet (Sigma). The number of colonies with >100 cells were counted. Results were normalized to plating efficiency. For each genotype, cell viability of untreated cells was defined as 100%. Data are represented as mean±SD from three independent experiments.
# (§3) In antiproliferative assays, compounds were assayed for their growth inhibiting activity towards the described cancer cell lines using the CellTiter-Glo Luminesent Cell Viability Assay as described by the manufacturer (Promega Corporation). […]
# HeLa FANCD2 KO cells [2] = assay: Lesion repair in cells synchronized at G1/S boundary (double thymidine block); type: cell-based; conditions: FIG. 7C, 8B
# Description: (§4) FIG. 7: Analysis of the FA-dependent melphalan-ICL repair during the cell cycle. (A) Dual parameter plot of the click-mono-melphalan or melphalan subjected to the Alexa 647-click reaction with propidium iodide co-staining. Lesions repair is evaluated in HeLa and HeLa FANCD2 KO cells by flow cytometry at different time post treatment. The percentage of G1 phase cells is indicated in the left corner (black), S phase cells in the center (yellow) and G2 phase in the right corner (red); (B) HeLa cells were arrested in G1 phase using a double thymidine block. Cultures harvested at various time points after release were stained with propidium iodide and analyzed using flow cytometry; (C) Quantification of fluorescence intensity in HeLa WT or HeLa FANCD2 KO treated with click-melphalan clicked with Alexa Fluor 647 azide at the indicated time post treatment. Data are shown as mean±s.e.m. of 3 independent experiments. *p<0.05 according to two-way ANOVA followed by Šidák multiple range test.
# (§5) FIG. 8: (A) HeLa WT and FANCD2 KO cells were synchronized at the G1/S boundary, treated or not with click-melphalan before release into drug free medium. Cell cycle profile was monitored by propidium iodide staining; (B) Quantification of fluorescence intensity in HeLa WT and FANCD2 KO cell lines treated with click-melphalan at indicated times post treatment. […]
# HeLa cells [3] = assay: as above; type: cell-based; conditions: FIG. 7C, 8B
# Description: as §4, §5
# DNA = assay: Detection of click agents in cells by microscopy (Alexa Fluor 647 azide); conditions: HeLa, 0.5 μM; FIG. 3C
# HeLa cells [4] = assay: Clonogenic survival assay; conditions: for number of colonies formed (clonogenic survival): 1 h treatment, colonies after 15 days, parent vs click compound, FIG. 1A, 1B
# HeLa cells [5] = assay: Reverse alkaline comet assay (ICL formation); conditions: for visual comet score in the absence of IR: no IR, 2C
# BRCA2 KO RPE1 cell line = assay: Repair of lesions in BRCA2-deficient cells, click reaction and flow cytometry; type: cell-based; conditions: BRCA2-deficient cells; FIG. 6D, 6F
# HeLa cells [6] = assay: Antiproliferative assay (CellTiter-Glo), IC50; type: cell-based; conditions: 72 h, 0.032-50 μM, FIG. 2B
# Description: as §1
# In antiproliferative assays, compounds were assayed for their growth inhibiting activity towards the described cancer cell lines using the CellTiter-Glo Luminesent Cell Viability Assay as described by the manufacturer (Promega Corporation). Briefly, 5.10^3 cells were plated onto 96 well-plates (white with clear bottom (3610, Corning Costar) with 90 μL media per well, and incubated overnight. Compounds were added at different concentrations (varying from 50 to 0.032 μM) to each well and cell cultures were incubated at 37° C. during 72 h. Vehicle (DMSO) was used as control and all compounds were tested in constant percentage of DMSO (0.5%). After addition of 50 μL CellTiter GLO, luminescence was measured using a Centro luminometer LB960 (Berthold). Dose-response curves were generated and effective dose 50 values (EC50) were calculated using nonlinear regression analysis (Graph Pad Prism).
# HeLa ERCC1 KO cells = assay: Sensitivity of ERCC1-deficient cells (IC50 and clonogenic survival); type: cell-based; conditions: FIG. 2E, 2F
# Description: as §1, §2, §3
# HeLa cells [7] = assay: Detection of click agents in cells by flow cytometry; type: cell-based; conditions: FIG. 3D
# Description: HeLa, Jurkat and FA or XP primary cells (10^6 per dish) were seeded into 10 cm culture dishes and incubated overnight in culture medium. The following day, samples were treated with 0.5 μM click-Melphalan (Example 1), 0.5 μM click-MonoMelphalan (Example 2) or DMSO vehicle for 1 h. After treatment, cells were PBS-washed and released into medium. At designated time points, samples were harvested and fixed in EtOH 70%. Fixed cells where incubated in a click reaction buffer (50 μM Alexa fluor 647 azide, 1 mM copper (II) sulfate, 100 mM sodium ascorbate, 100 mM Tris-HCl pH 8.0) for 30 min at room temperature and then washed extensively using 3×5% FBS in PBS rinses to remove unbound reporter. Samples were stained with 5 μg/mL propidium iodide in 3% FBS in PBS and then analyzed using an LSR Fortessa flow cytometer (BD Biosciences, San Jose, CA). Ten thousand events were collected for each sample and gated using forward-versus side-scatter to eliminate cell debris and doublets. The data were analyzed using FlowJo software version 7.6.5 (Tree Star, San Carlos, CA).
# HeLa FANCD2 KO cells [8] = assay: Repair of lesions in HeLa FANCD2 KO cells, click reaction and flow cytometry; conditions: HeLa FANCD2 KO
# HeLa cells [9] = assay: Repair of lesions in HeLa cells, click reaction and flow cytometry; conditions: WT HeLa, 48 h
# FANCD2 = assay: Detection of FANCD2 ubiquitination; conditions: FANCD2 mono ubiquitination by western blot, HeLa; FIG. 3B
# HeLa cells [10] = assay: Detection of G2 arrest by flow cytometry; conditions: FANCD2, γH2AX, G2 arrest, p53 and caspase taken together
# [11] = system: primary fibroblast cells from FA patients (FA1, FA2); assay: Repair of lesions in FA patient primary fibroblasts; conditions: FA1, FA2 vs C3, C4 fibroblasts; FIG. 9B
# [12] = system: fibroblast cells from XP patients (XP1, XP2); assay: Repair of lesions in XP patient fibroblasts
# [13] = system: PHA-stimulated lymphocytes from FA patients; assay: Repair of lesions in FA patient lymphocytes; conditions: both FA patients, 48 h post treatment
# HeLa FANCD2 KO cells [14] = assay: Dual parameter plot assay (click / propidium iodide); conditions: FIG. 7A left panel
# [15] = system: cells from subject C3 (non-XP); assay: Repair of lesions in control (non-XP) fibroblasts; conditions: subject C3, 48 h; FIG. 11B
smiles,measurement,setting,value
"C#CCNC(=O)[C@@H](N)Cc1ccc(N(CCCl)CCCl)cc1 [click-melphalan, (S)-2-amino-3-(4-(bis(2-chloroethyl)amino)phenyl)-N-(prop-2-yn-1-yl)propanamide]",sensitivity of FANCD2-deficient cells,HeLa FANCD2 KO cells [1],sensitive to click-melphalan
same,repair of lesions 10 h after release in S phase,HeLa FANCD2 KO cells [2],no significant repair
same,lesions repaired 10 h after release in S phase,HeLa cells [3],around 50%
same,fluorescence in cells after click reaction,DNA,fluorescence could be detected in cells
same,red fluorescent staining profile vs DNA content,DNA,essentially the same staining pattern as the DNA content
same,number of colonies formed (clonogenic survival),HeLa cells [4],similarly reduces the number of colonies formed with no significative differences
same,difference in toxicity between Melphalan and click-Melphalan,HeLa cells [4]; clonogenic assay,absence of differences in toxicity between Melphalan and click-Melphalan
same,IR-induced tail moment after pre-treatment,"HeLa cells [5]; 30 μM melphalan or click-melphalan, 60 min, then IR (10 Gy), FIG. 1C, 1D",large decrease in the IR-induced tail moment
same,"reversal of tail moment, Melphalan vs click-Melphalan","HeLa cells [5]; 30 μM, 60 min, then IR (10 Gy)",no significant difference was observed between Melphalan or click-Melphalan
same,visual comet score in the absence of IR,"HeLa cells [5]; FIG. 1C, 1D","neither Melphalan, click-Melphalan (Example 1), mono-melphalan (Comparative Example 1) nor click-mono-melphalan (Example 2) generated a visual comet score beyond the vehicle-treated control"
same,repair of click-melphalan-induced lesions,BRCA2 KO RPE1 cell line,strong defect in the repair
same,IC50 (parent vs click compound),HeLa cells [6],further confirmed by the measurement of IC50 activity
same,sensitivity of ERCC1-deficient cells,HeLa ERCC1 KO cells,sensitive to click-melphalan
same,concentration from which a fluorescent signal was detectable,HeLa cells [7],≥ 0.5 µM
same,concentration up to which the fluorescent signal increases,HeLa cells [7],up to 2 μM
same,effect of time of treatment on level of fluorescence,HeLa cells [7],Extending the time of treatment increases the level of fluorescence
same,cells positive for melphalan,HeLa FANCD2 KO cells [8]; 48 h,all HeLa FANCD2 KO cells remained positive to melphalan
same,median fluorescence intensity,"HeLa FANCD2 KO cells [8]; click-melphalan, FIG. 6B",no reduction of the median fluorescence intensity
same,repair of melphalan-induced lesions after 48 hours,HeLa cells [9],most of WT HeLa cells have repaired melphalan-induced lesions after 48 hours
same,minimum concentration required to detect a robust activation of the ICL repair pathway,FANCD2,0.5 µM
same,"overall biological response, melphalan vs click-melphalan",HeLa cells [10],equivalent biological response
"N[C@@H](Cc1ccc(N(CCO)CCCl)cc1)C(=O)O [mono-melphalan, (S)-2-Amino-3-(4-((2-chloroethyl) (2-hydroxyethyl)amino)phenyl)propanoic acid]","reduction of signal during repair of lesions, FA vs non-FA cells",[11],No significant differences in the reduction of signal
same,number of colonies formed (clonogenic survival),HeLa cells [4],similarly reduces the number of colonies formed with no significative differences
same,visual comet score in the absence of IR,"HeLa cells [5]; FIG. 1C, 1D","neither Melphalan, click-Melphalan (Example 1), mono-melphalan (Comparative Example 1) nor click-mono-melphalan (Example 2) generated a visual comet score beyond the vehicle-treated control"
same,cells still positive for mono-melphalan,"[12]; XP1 and XP2, 48 h, FIG. 11B",~100%
same,persistence of mono-melphalan-induced lesions,"[12]; XP compared to non-XP cells, up to 48 h, FIG. 11A, 11B",persisted in the XP patient cells up to 48 hours
same,repair of lesions in PHA-stimulated lymphocytes,[13],able to repair mono-melphalan
same,dependence of the repair delay on DNA content,HeLa FANCD2 KO cells [14],observed in all cells independently of their DNA content
same,repair of DNA lesions at 24 h,"HeLa FANCD2 KO cells [14]; HeLa FANCD2 KO compared to HeLa, 24 h",slightly delayed in HeLa FANCD2 KO at 24 h compared to HeLa cells
same,cells still positive for mono-melphalan,[15],~0%
